Source: PMC3701073, “The Mode of Inhibitor Binding to Peptidyl-tRNA Hydrolase: Binding Studies and Structure Determination of Unbound and Bound Peptidyl-tRNA Hydrolase from Acinetobacter baumannii” (PLoS ONE, 2013)

Target: T1, peptidyl-tRNA hydrolase from Acinetobacter baumannii (AbPth) (Acinetobacter baumannii, UniProt D0C9L6)
T1 construct: gene pth; full length, 193 residues (Met1-Ala193), N-terminal 6xHis tag (pET-28a, NdeI/XhoI; cleavage not mentioned), E. coli BL21(DE3)
T1 sequence (D0C9L6 1-193): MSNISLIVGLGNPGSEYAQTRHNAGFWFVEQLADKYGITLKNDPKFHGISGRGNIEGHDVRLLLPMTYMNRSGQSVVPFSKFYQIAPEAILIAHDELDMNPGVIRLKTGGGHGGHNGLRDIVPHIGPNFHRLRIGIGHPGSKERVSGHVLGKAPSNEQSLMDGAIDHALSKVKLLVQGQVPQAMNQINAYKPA
Test: intrinsic fluorescence quenching (Scatchard)
Type: binding

Row | Structure (SMILES) | Kd [nM]
1 | Nc1ccn([C@@H]2O[C@H](CO)[C@@H](O)[C@H]2O)c(=O)n1 [cytidine] | 4.79
2 | O=c1ccn([C@@H]2O[C@H](CO)[C@@H](O)[C@H]2O)c(=O)[nH]1 [uridine] | ~2.11
